For orientation: pKi means −log10 of the Ki, conventionally taken in molar units. Broadly, the GI50 is the concentration that inhibits growth by half.

pKi: −log10 of the molar value.

In one test the target is T1, CDK7 (Homo sapiens, UniProt P50613).
T1 construct: purchased Carna Biosciences, Inc. 04-108
Nature of the test: CDK7 enzyme inhibition test. The test is classed as biochemical. Particulars: [γ-33P]ATP, MBP substrate, 60 min preincubation at 25°C; Ki=IC50/(1+S/Km); read-out: Ki value of CDK7 inhibitory activity. The essentials:
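Commercial human CDK7 with myelin basic protein substrate in HEPES pH 7.4 buffer with DTT, Triton X-100, MgCl2; compound preincubated 60 min at 25° C, then reaction run 20 min at 30° C after adding [γ-^33P]ATP (500 μM solution). TCA-precipitated ^33P-MBP counted by scintillation; IC50 converted to Ki via Ki=IC50/(1+S/Km).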

In a further test the target is T2, CDK2 (Homo sapiens, UniProt P24941).
T2 construct: purchased Invitrogen Corp. PV3267
Nature of the test: CDK2 enzyme inhibition test. The test is classed as biochemical. Particulars: [γ-33P]ATP, MBP substrate; Ki=IC50/(1+S/Km); read-out: Ki value of CDK2 inhibitory activity. The method, then: The preparation of a buffer solution was performed by mixing a N-2-hydroxyethylpiperazine-N′-2-ethanesulfonic acid buffer solution (HEPES buffer solution) (pH 7.4), dithiothreitol (DTT), Triton X-100, and magnesium chloride (MgCl2). A 500 μM [γ-^33P]ATP solution was used by diluting a 10 mM ATP solution and a commercially available [γ-^33P]ATP solution (manufactured by Perkin Elmer, Inc., Code No. NEG-302H) with the buffer solution. A CDK2 solution was used by diluting commercially available CDK2 (manufactured by Invitrogen Corp., Catalog No. PV3267) with the buffer solution. A substrate solution was used by diluting myelin basic protein (MBP) with the buffer solution. As for the preparation of a reaction solution, the buffer solution, the 500 μM [γ-^33P]ATP solution, the CDK2 solution, and the substrate solution were mixed at 4° C. to obtain a reaction solution.
(§1) CDK2 enzyme reaction was performed by adding 5 μL of a test compound solution prepared with 10% DMSO/90% injectable distilled water, and 45 μL of the reaction solution in a 1.5 mL microtube at 4° C. and reacting in the microtube at 30° C. for 20 minutes in a water bath incubator. After the reaction, a 10% aqueous trichloroacetic acid (TCA) solution was added to each microtube while cooled to 4° C., and mixed in a vortex mixer to terminate the reaction. The resultant was left standing at 4° C. for 10 minutes and then centrifuged, and the supernatant was discarded. Next, a 2% aqueous trichloroacetic acid (TCA) solution was added thereto, mixed in vortex mixer, and then centrifuged, and the supernatant was discarded. This washing operation was performed twice. After the washing, precipitates were dissolved in a 1 N aqueous sodium hydroxide (NaOH) solution, and the energy quantity (radioactivity) of the reaction product was measured with a liquid scintillation counter.
The calculation of the inhibitory activity of the test compound against CDK2 was performed as a test compound concentration inhibiting 50% of the amount of ^33P bound to MBP (IC50 value) by using EXSUS (version 8.1.0, manufactured by CAC Exicare Corp.).
(§2) The calculation of a Ki value was performed according to the following calculation expression wherein S represents the concentration of ATP contained in the reaction solution, and Km represents a Michaelis-Menten constant: Ki=IC50/(1+S/Km)

The target in a further test is T3, PLK1 (Homo sapiens, UniProt P53350).
T3 construct: purchased Carna Biosciences, Inc. 05-157
The test can be described thus: PLK1 enzyme (polo-like kinase) inhibition test. Particulars: [γ-33P]ATP, casein substrate; Ki=IC50/(1+S/Km); read-out: Ki value of PLK1 inhibitory activity. The test is classed as biochemical. The method, then:
The preparation of a buffer solution was performed by mixing a 3-morpholinopropanesulfonic acid buffer solution (MOPS buffer solution) (pH 7.0), dithiothreitol (DTT), and magnesium acetate (Mg(CH3COO)2). A 1 mM [γ-^33P]ATP solution was used by diluting a 10 mM ATP solution and a commercially available [γ-^33P]ATP solution (manufactured by Perkin Elmer, Inc., Code No. NEG-302H) with the buffer solution. A PLK1 solution was used by diluting commercially available PLK1 (manufactured by Carna Biosciences, Inc., Catalog No. 05-157) with the buffer solution. A substrate solution was used by diluting casein with the buffer solution. As for the preparation of a reaction solution, the buffer solution, the 500 μM [γ-^33P]ATP solution, the PLK1 solution, and the substrate solution were mixed at 4° C. to obtain a reaction solution.
as §1, with “PLK1 enzyme reaction” for “CDK2 enzyme reaction”, “mixed in a vortex mixer,” for “mixed in vortex mixer,”
The calculation of the inhibitory activity of the test compound against PLK1 was performed as a test compound concentration inhibiting 50% of the amount of ^33P bound to casein (IC50 value) by using EXSUS (version 8.1.0, manufactured by CAC Exicare Corp.).
as §2

The test system of test [1] is human large intestine cancer cell line (HCT-116). Nature of the test: Human large intestine cancer (HCT-116) cell growth inhibition test. The class given is cell-based. Particulars: HCT-116, 72 h, culture for 3 days, sulforhodamine B, read-out: GI50 value, HCT-116 cell growth inhibition. In outline:
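HCT-116 cells were seeded at 0.5 to 2.0×10^3 cells/well in McCoy's 5A with 10% FBS and dosed with compound at 0.1% final DMSO after overnight culture. Growth was measured by sulforhodamine B absorbance after 3 days. GI50 was calculated from the inhibition rate at each concentration.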

T1 sequence (P50613 whole entry): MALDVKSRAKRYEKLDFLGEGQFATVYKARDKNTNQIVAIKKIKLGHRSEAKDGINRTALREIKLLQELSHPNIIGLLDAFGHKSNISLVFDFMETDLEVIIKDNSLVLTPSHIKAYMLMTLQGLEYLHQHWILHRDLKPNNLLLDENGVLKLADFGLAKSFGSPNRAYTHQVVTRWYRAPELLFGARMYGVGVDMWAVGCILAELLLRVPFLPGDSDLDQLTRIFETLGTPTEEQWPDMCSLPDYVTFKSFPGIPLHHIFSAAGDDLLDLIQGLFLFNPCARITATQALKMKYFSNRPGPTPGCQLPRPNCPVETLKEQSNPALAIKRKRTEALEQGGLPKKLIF
T1 sequence (P51946 whole entry partner): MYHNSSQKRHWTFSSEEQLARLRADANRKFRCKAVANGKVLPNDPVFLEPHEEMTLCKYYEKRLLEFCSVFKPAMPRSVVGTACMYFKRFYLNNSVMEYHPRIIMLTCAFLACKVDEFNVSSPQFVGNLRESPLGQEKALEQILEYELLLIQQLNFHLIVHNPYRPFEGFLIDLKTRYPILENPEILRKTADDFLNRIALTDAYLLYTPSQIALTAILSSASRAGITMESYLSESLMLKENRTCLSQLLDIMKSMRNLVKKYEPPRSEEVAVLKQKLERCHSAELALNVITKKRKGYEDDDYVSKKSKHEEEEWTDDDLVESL
T1 sequence (P51948 whole entry partner): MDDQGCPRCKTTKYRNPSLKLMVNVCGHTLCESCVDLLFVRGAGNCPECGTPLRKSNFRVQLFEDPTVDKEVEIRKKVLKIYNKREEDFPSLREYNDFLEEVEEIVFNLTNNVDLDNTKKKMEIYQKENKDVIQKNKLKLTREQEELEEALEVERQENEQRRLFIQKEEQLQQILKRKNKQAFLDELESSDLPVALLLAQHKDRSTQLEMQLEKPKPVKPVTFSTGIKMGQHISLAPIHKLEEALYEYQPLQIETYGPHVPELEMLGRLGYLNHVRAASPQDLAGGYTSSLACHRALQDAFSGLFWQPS
T3 sequence (P53350 whole entry): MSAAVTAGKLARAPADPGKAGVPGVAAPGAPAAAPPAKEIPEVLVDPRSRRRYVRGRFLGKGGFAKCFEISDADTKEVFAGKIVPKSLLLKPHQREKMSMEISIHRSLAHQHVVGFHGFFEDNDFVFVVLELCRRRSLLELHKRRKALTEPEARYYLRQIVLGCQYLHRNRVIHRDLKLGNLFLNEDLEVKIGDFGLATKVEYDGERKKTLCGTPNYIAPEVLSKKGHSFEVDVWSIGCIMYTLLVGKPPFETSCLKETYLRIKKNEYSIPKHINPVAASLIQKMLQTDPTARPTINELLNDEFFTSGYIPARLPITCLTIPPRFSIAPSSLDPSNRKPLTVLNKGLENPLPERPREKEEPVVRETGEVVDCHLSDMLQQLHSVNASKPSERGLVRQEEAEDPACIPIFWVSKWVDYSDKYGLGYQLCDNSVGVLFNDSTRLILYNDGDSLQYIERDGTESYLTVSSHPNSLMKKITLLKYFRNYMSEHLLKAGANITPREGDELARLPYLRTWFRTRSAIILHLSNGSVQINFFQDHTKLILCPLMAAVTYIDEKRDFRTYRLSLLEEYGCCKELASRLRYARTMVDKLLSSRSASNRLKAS

Turning to `CC1(C)c2[nH]nc(NC(=O)C3([Si](C)(C)C)CC3)c2CN1C(=O)Nc1c(F)ccc2ccoc12` [III-1049, N-(6-Fluorobenzofuran-7-yl)-6,6-dimethyl-3-[1-(trimethylsilyl)cyclopropanecarboxamido]-4,6-dihydropyrrolo[3,4-c]pyrazole-5 (1H)-carboxamide], the negative-log Ki (pKi) at CDK7 is no less than 7.30; at CDK2, no more than 6.00; on PLK1, no more than 5.30. Also, the GI50 in test [1] is no more than 100 nM.

Consider `CCc1ccccc1NC(=O)N1Cc2c(NC(=O)C3([Si](C)(C)C)CCC3)n[nH]c2C1(C)C` [IV-27, N-(2-Ethylphenyl)-6,6-dimethyl-3-[1-(trimethylsilyl)cyclobutanecarboxamido]-4,6-dihydropyrrolo[3,4-c]pyrazole-5(1H)-carboxamide], for which the pKi is no less than 7.30 on CDK7, no more than 6.00 at CDK2 and no more than 5.30 on PLK1. Further, the GI50 in test [1] was no more than 100 nM.

`CC1(C)c2[nH]nc(NC(=O)C3([Si](C)(C)C)CCC3)c2CN1C(=O)Nc1ccccc1C1CC1` [IV-39, N-(2-Cyclopropylphenyl)-6,6-dimethyl-3-[1-(trimethylsilyl)cyclobutanecarboxamido]-4,6-dihydropyrrolo[3,4-c]pyrazole-5(1H)-carboxamide]: the negative-log Ki (pKi) is no less than 7.30 at CDK7, no more than 6.00 at CDK2 and no more than 5.30 at PLK1. Moreover, the concentration for 50% growth inhibition (GI50) in test [1] is no more than 100 nM.

As to `CC(F)(F)c1ccccc1NC(=O)N1Cc2c(NC(=O)C3([Si](C)(C)C)CCC3)n[nH]c2C1(C)C` [IV-45, N-[2-(1,1-Difluoroethyl)phenyl]-6,6-dimethyl-3-[1-(trimethylsilyl)cyclobutanecarboxamido]-4,6-dihydropyrrolo[3,4-c]pyrazole-5(1H)-carboxamide], the results for the negative logarithm of the Ki (pKi) on CDK7, at CDK2 and at PLK1 were no less than 7.30, no more than 6.00 and no more than 5.30, respectively. Moreover, the GI50 in test [1] is no more than 100 nM.

With `CC1(C)c2[nH]nc(NC(=O)C3([Si](C)(C)C)CCC3)c2CN1C(=O)Nc1ccccc1OC(F)F` [IV-87, N-[2-(Difluoromethoxy)phenyl]-6,6-dimethyl-3-[1-(trimethylsilyl)cyclobutanecarboxamido]-4,6-dihydropyrrolo[3,4-c]pyrazole-5(1H)-carboxamide], the pKi at CDK7 is no less than 7.30; at CDK2, no more than 6.00; at PLK1, no more than 5.30. For the same compound, the GI50 in test [1] is no more than 100 nM.

`CC1(C)c2[nH]nc(NC(=O)C3([Si](C)(C)C)CCC3)c2CN1C(=O)Nc1c(F)cccc1F` [IV-105, N-(2,6-Difluorophenyl)-6,6-dimethyl-3-[1-(trimethylsilyl)cyclobutanecarboxamido]-4,6-dihydropyrrolo[3,4-c]pyrazole-5(1H)-carboxamide]: the negative-log Ki (pKi) on CDK7 is no less than 7.30; on CDK2 it was no more than 6.00; at PLK1, no more than 5.30. Also, the GI50 in test [1] is no more than 100 nM.

For `[2H]C([2H])([2H])Oc1cccc(F)c1NC(=O)N1Cc2c(NC(=O)C3([Si](C)(C)C)CCC3)n[nH]c2C1(C)C` [IV-177, N-[2-Fluoro-6-(methoxy-d3)phenyl]-6,6-dimethyl-3-[1-(trimethylsilyl)cyclobutanecarboxamido]-4,6-dihydropyrrolo[3,4-c]pyrazole-5(1H)-carboxamide], the figures for the pKi at CDK7, at CDK2 and on PLK1 were no less than 7.30, no more than 6.00 and no more than 5.30, respectively. Further, the GI50 in test [1] is no more than 100 nM.

With `CC1(C)c2[nH]nc(NC(=O)C3([Si](C)(C)C)CCC3)c2CN1C(=O)Nc1c(F)cccc1C#N` [IV-185, N-(2-Cyano-6-fluorophenyl)-6,6-dimethyl-3-[1-(trimethylsilyl)cyclobutanecarboxamido]-4,6-dihydropyrrolo[3,4-c]pyrazole-5 (1H)-carboxamide], the negative-log Ki (pKi) at CDK7 was no less than 7.30; at CDK2 it was no more than 6.00; on PLK1 it was no more than 5.30. Also, in test [1], the 50% growth inhibitory concentration (GI50) was no more than 100 nM.

On to `CC1(C)c2[nH]nc(NC(=O)C3([Si](C)(C)C)CCC3)c2CN1C(=O)Nc1c(Cl)cccc1Br` [IV-207, N-(2-Bromo-6-chlorophenyl)-6,6-dimethyl-3-[1-(trimethylsilyl)cyclobutanecarboxamido]-4,6-dihydropyrrolo[3,4-c]pyrazole-5 (1H)-carboxamide], for which the values for the negative-log Ki (pKi) on CDK7, on CDK2 and at PLK1 were no less than 7.30, no more than 6.00 and no more than 5.30, respectively. In test [1], the 50% growth inhibitory concentration (GI50) is no more than 100 nM.

Consider `CC1(C)c2[nH]nc(NC(=O)C3([Si](C)(C)C)CCC3)c2CN1C(=O)Nc1c(Cl)cccc1C1CC1` [IV-231, N-(2-Chloro-6-cyclopropylphenyl)-6,6-dimethyl-3-[1-(trimethylsilyl)cyclobutanecarboxamido]-4,6-dihydropyrrolo[3,4-c]pyrazole-5(1H)-carboxamide], for which the figures for the pKi on CDK7, on CDK2 and at PLK1 were no less than 7.30, no more than 6.00 and no more than 5.30, respectively. Further, the GI50 in test [1] was no more than 100 nM.

On to `CC1(C)c2[nH]nc(NC(=O)C3([Si](C)(C)C)CCC3)c2CN1C(=O)Nc1c(Cl)cccc1C(F)(F)F` [IV-239, N-[2-Chloro-6-(trifluoromethyl)phenyl]-6,6-dimethyl-3-[1-(trimethylsilyl)cyclobutanecarboxamido]-4,6-dihydropyrrolo[3,4-c]pyrazole-5(1H)-carboxamide], for which the pKi on CDK7 is no less than 7.30; on CDK2, no more than 6.00; at PLK1 it was no more than 5.30. For the same compound, in test [1], the GI50 was no more than 100 nM.

Consider `Cc1c(F)cccc1NC(=O)N1Cc2c(NC(=O)C3([Si](C)(C)C)CCC3)n[nH]c2C1(C)C` [IV-357, N-(3-Fluoro-2-methylphenyl)-6,6-dimethyl-3-[1-(trimethylsilyl)cyclobutanecarboxamido]-4,6-dihydropyrrolo[3,4-c]pyrazole-5 (1H)-carboxamide], for which the negative logarithm of the Ki (pKi) on CDK7 is no less than 7.30; on CDK2, no more than 6.00; at PLK1, no more than 5.30. Moreover, the GI50 in test [1] is no more than 100 nM.

For the compound `Cc1ccc(Cl)cc1NC(=O)N1Cc2c(NC(=O)C3([Si](C)(C)C)CCC3)n[nH]c2C1(C)C` [IV-367, N-(5-Chloro-2-methylphenyl)-6,6-dimethyl-3-[1-(trimethylsilyl)cyclobutanecarboxamido]-4,6-dihydropyrrolo[3,4-c]pyrazole-5 (1H)-carboxamide], the results for the pKi on CDK7, on CDK2 and at PLK1 were no less than 7.30, no more than 6.00 and no more than 5.30, respectively. Besides, the concentration for 50% growth inhibition (GI50) in test [1] is no more than 100 nM.

The values above are taken from patent US10894798B2, “Substituted dihydropyrrolopyrazole derivative” (UBE INDUSTRIES, LTD., priority 2015, dated 2021).
